Measurements from patent publication US9192613B1, “Treatment method for primary premature ejaculation” (Sapere IP, LLC, priority 2014, dated 2015).

Assays:
[1] = test system: men with premature ejaculation; conditions: cited from earlier work
[2] = test system: patients with primary premature ejaculation; experiment: On-demand treatment of primary premature ejaculation: onset of action; type: in vivo, men; conditions: intracavernosal injection, 5-20 mcg, 20 mcg/ml
Description: Side-effects are dose related and include dizziness, headache, nausea, blurred vision and dry mouth.
The doses start at lower doses such as 5 mcg=0.25 ml and progress to higher doses such as 10 mcg=0.5 ml and 20 mcg=1 ml, as needed, to achieve the desired effect.

[3] = test system: patients receiving intracavernous injection; conditions: pooled publications; cited from earlier work

In the case of `CN(C)CCCN1c2ccccc2CCc2ccc(Cl)cc21` [Clomipramine], the “Effect at delaying ejaculation” value ([1]; oral administration) is given as “significant effect at delaying ejaculation” and the “Time the drug needs to be taken before sexual relations” value ([1]; oral, on-demand use) is given as 3 to 4 h.

In the case of `CCCCC[C@H](O)/C=C/[C@H]1[C@H](O)CC(=O)[C@@H]1CCCCCCC(=O)O` [Alprostadil], the “Onset of Action” value [2] was 5 to 10 min.

In the case of `COc1ccc(Cc2nccc3cc(OC)c(OC)cc23)cc1OC` [Papaverine], the “Fibrosis (%)” value [3] is given as 5.7%, the “Liver Enzymes (%)” value [3] is given as 1.6% and the “Pain (%)” value [3] is given as 4%. For the same molecule, the “Priapism (%)” value [3] was 7.1%.
